# Results: patent publication US11919904B2, “Sulfonylamide compounds as CDK2 inhibitors” (Incyte Corporation, priority 2019, dated 2024)
# Biological target: CDK2/Cyclin E1 (Homo sapiens (Human), UniProt P24941)
# Assay: CDK2/Cyclin E1 HTRF enzyme activity assay
# Format: biochemical
# Settings: 1 mM ATP
# Protocol: CDK2/Cyclin E1 enzyme activity assays utilize full-length human CDK2 co-expressed as N-terminal GST-tagged protein with FLAG-Cyclin E1 in a baculovirus expression system (Carna Product Number 04-165). Assays are conducted in white 384-well polystyrene plates in a final reaction volume of 8 μL. CDK2/Cyclin E1 (0.25 nM) is incubated with compounds (40 nL serially diluted in DMSO) in the presence of ATP (50 μM or 1 mM) and 50 nM ULight™-labeled eIF4E-binding protein 1 (THR37/46) peptide (PerkinElmer) in assay buffer (containing 50 mM HEPES pH 7.5, 1 mM EGTA, 10 mM MgCl2, 2 mM DTT, 0.05 mg/mL BSA, and 0.01% Tween 20) for 60 minutes at room temperature. The reactions are stopped by the addition of EDTA and Europium-labeled anti-phospho-4E-BP1 antibody (PerkinElmer), for a final concentration of 15 mM and 1.5 nM, respectively. HTRF signals are read after 1 hour at room temperature on a PHERAstar FS plate reader (BMG Labtech). Data is analyzed with IDBS XLFit and GraphPad Prism 5.0 software using a three or four parameter dose response curve to determine IC50 for each compound.
row,Compound,IC50 [nM]
1,"[2H]C([2H])([2H])NS(=O)(=O)c1ccc(Nc2ncc3c(n2)N([C@@H]2CCC[C@@H](O)C2)C(=O)C32CC2)cc1 [Example 7, 4-((7′-((1R,3R)-3-hydroxycyclohexyl)-6′-oxo-6′,7′-dihydrospiro[cyclopropane-1,5′-pyrrolo[2,3-d]pyrimidin]-2′-yl)amino)-N-(methyl-d)benzenesulfonamide]",≤ 50
2,"CNS(=O)(=O)c1ccc(Nc2ncc3c(n2)N([C@@H]2CCC[C@]2(C)O)C(=O)C32CC2)cc1 (relative stereo) [Example 1, 4-((7′-((cis)-2-hydroxy-2-methylcyclopentyl)-6′-oxo-6′,7′-dihydrospiro[cyclopropane-1,5′-pyrrolo[2,3-d]pyrimidin]-2′-yl)amino)-N-methylbenzenesulfonamide]",≤ 50
3,"CC[C@@H](N1C(=O)C2(CC2)c2cnc(Nc3ccc(S(=O)(=O)NC)cc3)nc21)C(F)(F)F [Example 4, (R)—N-methyl-4-((6′-oxo-7′-(1,1,1-trifluorobutan-2-yl)-6′,7′-dihydrospiro[cyclopropane-1,5′-pyrrolo[2,3-d]pyrimidin]-2′-yl)amino)benzenesulfonamide]",≤ 50
4,"CNS(=O)(=O)c1ccc(Nc2ncc3c(n2)N([C@@H]2CCC[C@H]2C)C(=O)C32CC2)cc1 (relative stereo) [Example 2, N-methyl-4-((7′-((trans)-2-methylcyclopentyl)-6′-oxo-6′,7′-dihydrospiro[cyclopropane-1,5′-pyrrolo[2,3-d]pyrimidin]-2′-yl)amino)benzenesulfonamide]",≤ 50
5,"[2H]C([2H])([2H])NS(=O)(=O)c1ccc(Nc2ncc3c(n2)N([C@@H](C)C2CC2)C(=O)C32CC2)cc1 [Example 8, (S)-4-((7′-(1-cyclopropylethyl)-6′-oxo-6′,7′-dihydrospiro[cyclopropane-1,5′-pyrrolo[2,3-d]pyrimidin]-2′-yl)amino)-N-(methyl-d)benzenesulfonamide]",≤ 50
6,"CC1CCCC1N1C(=O)C2(CC2)c2cnc(Nc3ccc(S(=O)(=O)N[C@@H]4CCCN(C)C4)cc3)nc21 (stereo partly drawn) [Example 5, 4-((7′-(2-methylcyclopentyl)-6′-oxo-6′,7′-dihydrospiro[cyclopropane-1,5′-pyrrolo[2,3-d]pyrimidin]-2′-yl)amino)-N—((R)-1-methylpiperidin-3-yl) benzenesulfonamide]",≤ 50
7,"CNS(=O)(=O)c1ccc(Nc2ncc3c(n2)N([C@@H]2CCC[C@@H](O)C2)C(=O)C32CC2)cc1 [Example 6, 4-((7′-((1R,3R)-3-hydroxycyclohexyl)-6′-oxo-6′,7′-dihydrospiro [cyclopropane-1,5′-pyrrolo[2,3-d]pyrimidin]-2′-yl)amino)-N-methylbenzene sulfonamide]",≤ 50
8,"CC1(NS(=O)(=O)c2ccc(Nc3ncc4c(n3)N([C@@H]3CCC[C@]3(C)O)C(=O)C43CC3)cc2)CNC1 (relative stereo) [Example 3, 4-((7′-((cis)-2-hydroxy-2-methylcyclopentyl)-6′-oxo-6′,7′-dihydrospiro[cyclopropane-1,5′-pyrrolo[2,3-d]pyrimidin]-2′-yl)amino)-N-(3-methylazetidin-3-yl)benzenesulfonamide]",≤ 50

# Now from value to compound:
row,IC50 [nM],Compound
1,≤ 50,"CNS(=O)(=O)c1ccc(Nc2ncc3c(n2)N(c2cc(F)ccc2Cl)C(=O)C32CC2)cc1 [Example 15, 4-((7′-(2-chloro-5-fluorophenyl)-6′-oxo-6′,7′-dihydrospiro[cyclopropane-1,5′-pyrrolo[2,3-d]pyrimidin]-2′-yl)amino)-N-methylbenzenesulfonamide]"
2,≤ 50,"[2H]C([2H])([2H])NS(=O)(=O)c1ccc(Nc2ncc3c(n2)N([C@@H]2CCC[C@@]2(C)O)C(=O)C32CC2)cc1 (single isomer, unassigned) [Example 9, 4-((7′-((trans)-2-hydroxy-2-methylcyclopentyl)-6′-oxo-6′,7′-dihydrospiro [cyclopropane-1,5′-pyrrolo[2,3-d]pyrimidin]-2′-yl)amino)-N-(methyl-d)benzene sulfonamide]"
3,≤ 50,"CN(C)CCNS(=O)(=O)c1ccc(Nc2ncc3c(n2)N(c2cc(F)ccc2Cl)C(=O)C32CC2)cc1 [Example 12, 4-((7′-(2-chloro-5-fluorophenyl)-6′-oxo-6′,7′-dihydrospiro[cyclopropane-1,5′-pyrrolo[2,3-d]pyrimidin]-2′-yl)amino)-N-(2-(dimethylamino)ethyl)benzenesulfonamide]"
4,≤ 50,"CC(C)(O)CNS(=O)(=O)c1ccc(Nc2ncc3c(n2)N([C@@H]2CCC[C@@]2(C)O)C(=O)C32CC2)cc1 [Example 10, 4-((7′-(2-hydroxy-2-methylcyclopentyl)-6′-oxo-6′,7′-dihydrospiro [cyclopropane-1,5′-pyrrolo[2,3-d]pyrimidin]-2′-yl)amino)-N-(2-hydroxy-2-methylpropyl)benzenesulfonamide]"
5,≤ 50,"CNS(=O)(=O)c1ccc(Nc2ncc3c(n2)N([C@@H]2CCC[C@@]2(C)O)C(=O)C32CC2)c(F)c1 (relative stereo) [Example 11, 3-fluoro-4-((7′-((trans)-2-hydroxy-2-methylcyclopentyl)-6′-oxo-6′,7′-dihydrospiro[cyclopropane-1,5′-pyrrolo[2,3-d]pyrimidin]-2′-yl)amino)-N-methylbenzenesulfonamide]"
6,≤ 50,"CNS(=O)(=O)c1ccc(Nc2ncc3c(n2)N(c2cc4c(cc2Cl)CNCC4)C(=O)C32CC2)cc1 [Example 13, 4-((7′-(7-chloro-1,2,3,4-tetrahydroisoquinolin-6-yl)-6′-oxo-6′,7′-dihydrospiro[cyclopropane-1,5′-pyrrolo[2,3-d]pyrimidin]-2′-yl)amino)-N-methylbenzenesulfonamide]"
7,≤ 50,"CNS(=O)(=O)c1ccc(Nc2ncc3c(n2)N(c2cc(F)ccc2C)C(=O)C32CC2)cc1 [Example 14, 4-((7′-(5-fluoro-2-methylphenyl)-6′-oxo-6′,7′-dihydrospiro[cyclopropane-1,5′-pyrrolo[2,3-d]pyrimidin]-2′-yl)amino)-N-methylbenzenesulfonamide]"

# System: Rb phosphorylated on serine 780 in CCNE1 amplified COV318 cells
# Assay: CDK2 pRb (S780) HTRF cellular assay
# Format: cell-based
# Settings: Homo sapiens, FIG. 10B
# Protocol: CDK2 pRb ([…]) HTRF cellular assay enables the quantitative detection of Rb phosphorylated on […] in CCNE1 amplified COV318 cells. The assay comprised two antibodies: Europium cryptate labeled anti-Phospho-Rb […] antibody (donor) and d2 labeled anti-Rb antibody (acceptor). […] The final concentrations of compounds start from 3 μM. […] After 2 h of incubation at room temperature, HTRF signals were measured on the PHERAstar microplate reader (BMG Labtech), using 340 nm as excitation wavelength, a 620 nm filter for the Europium donor fluorescence, and a 665-nm filter for the acceptor fluorescence detection. HTRF signals were calculated as the HTRF ratio (ratio of fluorescence measured at 665 nm and 620 nm)×10000.
row,Compound,IC50 [nM]
1,"C[C@@]1(O)CCC[C@H]1n1c(=O)ccc2cnc(NC3CCN(S(C)(=O)=O)CC3)nc21 [Compound A, 8-((1R,2R)-2-hydroxy-2-methylcyclopentyl)-2-((1-(methylsulfonyl)piperidin-4-yl)amino)pyrido[2,3-d]pyrimidin-7(8H)-one]",37

# System: CCNE1 amplified COV318 cells
# Assay: Cell cycle analysis by FACS in COV318 cells with control or p16 siRNA
# Format: cell-based, human
# Settings: control siRNA-treated cells; 100 nM; sixteen hours
# Protocol: To confirm the role of p16 in CDK2-sensitivity of CCNE-amplified cells, COV318 cells were treated with control or p16-specifict siRNA.
# Bulk DNA was stained with DAPI. Compound-treated and DMSO treated control cells were acquired with CytoFlex (Beckman Coulter) and were analyzed using the FlowJo software. For cell cycle analysis of cells with siRNA knockdown, 72 hours after siRNA transfection, cells exposed to 10 μM EdU for 3 hours before detection of Click-iT Alexa Fluor® 647 azide kit.
row,Compound,percentage of S phase cells
1,"C[C@@]1(O)CCC[C@H]1n1c(=O)ccc2cnc(NC3CCN(S(C)(=O)=O)CC3)nc21 [Compound A, 8-((1R,2R)-2-hydroxy-2-methylcyclopentyl)-2-((1-(methylsulfonyl)piperidin-4-yl)amino)pyrido[2,3-d]pyrimidin-7(8H)-one]",significantly decreased

# Same assay, conditions: p16 knocked down cells; 100 nM; sixteen hours; compared to DMSO control
row,Compound,percentage of S phase cells
1,"C[C@@]1(O)CCC[C@H]1n1c(=O)ccc2cnc(NC3CCN(S(C)(=O)=O)CC3)nc21 [Compound A, 8-((1R,2R)-2-hydroxy-2-methylcyclopentyl)-2-((1-(methylsulfonyl)piperidin-4-yl)amino)pyrido[2,3-d]pyrimidin-7(8H)-one]",not significantly decreased
